Read-outs that look alike come from different tables or passages of the source.
Columns and labels:
[1] = Pharmacokinetics of ginsenosides after single oral RGE with or without amoxicillin treatment; format: in vivo, mice
Experimental: Male ICR mice (7-weeks-year-old, 30–35 g) were purchased from Samtako Co. (Osan, Kyunggi-do, Korea). Animals were acclimatized for 1 week in an animal facility at Kyungpook National University. Food and water were available ad libitum.
(§1) Before blood sampling, mice were anesthetized using isoflurane (isoflurane vaporizer to 2% with oxygen flow at 0.8 L/min) for 5 min.

[2] = set-up: method as in PMID 27516803, PMID 24235859; conditions: cited from earlier work
[3] = set-up: method as in PMID 29375375, PMID 28955238; conditions: 100–400 mg of CK, once daily for 9 days; cited from earlier work
[4] = tested on: lactic acid bacteria (LAB); assay: In vitro RGE fermentation with LAB; conditions: for Alteration of ginsenoside by fermentation of RGE with LAB: 7 days incubation; for Increase of ginsenoside by fermentation of RGE with LAB: 7 days, relative to the first day
[5] = Recovery of ginsenosides from urine and feces for 48 h after RGE, amoxicillin vs control; conditions: for Fecal recovery, change by the amoxicillin treatment: feces 48 h after single oral RGE 2 g/kg, vs control
Experimental: Aliquots (200 μL) of an IS (0.05 ng/mL berberine in methanol) were added to 30 μL of plasma or urine samples. Aliquots (600 μL) of an IS methanol solution containing 0.05 ng/mL berberine were added to 100 μL of 10% feces homogenate samples. […] After centrifugation, 200 μL of the supernatant was transferred to a clean tube and dried under a nitrogen stream at 40 °C. The residue was reconstituted using 100 μL of 70% methanol supplemented with 0.1% formic acid, and a 10-μL aliquot was injected into the LC–MS/MS system.

[6] = Recovery of ginsenosides from urine and feces for 48 h after RGE, amoxicillin with or without LAB; conditions: feces 48 h after single oral RGE 2 g/kg; Amoxicillin + LAB vs amoxicillin
Experimental: (§2) Mice received amoxicillin (n = 12, 20 mg/kg, dissolved in water at 2 mL/kg, twice daily) for 3 days via oral gavage. From the 4th day, mice from the LAB + amoxicillin treatment group received LAB (2 g/kg suspended in water at 2 mL/kg, once daily) for 7 days via oral gavage. Mice from the amoxicillin treatment group received water (2 mL/kg, once daily) for 7 days via oral gavage.

[7] = Pharmacokinetics of ginsenosides after single oral RGE after amoxicillin with or without repeated LAB treatment; conditions: single oral RGE 2 g/kg; for AUC: Amoxicillin + LAB (LAB 2 g/kg once daily 7 days), AUC 0 to 48 h; for Cmax / Half-Life / MRT / Tmax: Amoxicillin + LAB
Experimental: as §2
Blood sampling was performed using a sparse sampling method via the right or left retro-orbital vein under isoflurane anesthesia at 0, 2, 4, and 8 h after the RGE administration through the heparinized capillary tube. […] After centrifugation of the blood samples at 10,000× g for 1 min, 30 μL aliquots of plasma were stored at −80 °C until the analysis of the ginsenosides. Subsequent protocols were identical to the amoxicillin treated group.
Pharmacokinetic parameters were calculated using WinNonlin (version 5.1, Pharsight, Mountain View, CA, USA) by a non-compartmental analysis.

[8] = Plasma protein binding by rapid equilibrium dialysis; format: in vitro ADME; conditions: 4 h at 37 °C
Experimental: Briefly, 100 μL of mouse plasma containing 1 μM of each ginsenoside was added to the semipermeable membrane’s inner sample chamber (molecular weight cut-off 8000 Da), and 300 μL of PBS was added to the outer buffer chamber. The samples were then incubated for 4 h at 37 °C on a shaking incubator at 300 rpm, followed by collecting 30-μL aliquots from both the sample and buffer chambers.
Subsequent protocols were identical to the method described above except for the use of ice-cold IS solution (200 μL; 0.05 ng/mL berberine in acetonitrile) to 30 μL of the reaction samples.
Plasma protein binding was calculated using the following equation [31, 60]: Plasma protein binding=(1−Drug concentration in buffer chamber/Drug concentration in plasma sample chamber)×100(%).

[9] = tested on: Caco-2 cells; conditions: cited from earlier work
[10] = cited from earlier work
[11] = Caco-2 permeability (apical to basal); conditions: human, Caco-2, pH 7.4
Experimental: (§3) The culture medium was replaced every other day. On the day of the experiment, the growth medium was discarded, and the attached cells were washed with prewarmed HBSS (pH 7.4) and preincubated with HBSS for 20 min at 37 °C, and the permeability assay was conducted as previously described [53]. Briefly, to measure the apical to basal permeability of each ginsenoside, 0.5 mL of HBSS containing 50 µM of individual ginsenoside (GRb1, GRb2, GRc, GRd, GRe, GRf, GRg1, GRg3, GRh1, GRh2, GF1, GF2, CK, PPD, or PPT) was added to the apical side (inside of the insert) and 1.5 mL of fresh HBSS was added to the basal side of the insert. […] Aliquots (0.1 mL) in basal side were transferred to clean tubes and stored at −80 °C until further analysis. Transport study was performed for 1 h based on the linearity of the cumulative transport amounts of ginsenosides against the transport time. The integrity of cell monolayers was evaluated before and after the permeability experiments by measuring the transepithelial electrical resistance (TEER) values using an epithelial volt/ohm meter (World Precision Instruments; Sarasota, FL, USA). […]
(§4) For the permeability calculation, the transport rate of ginsenosides and marker conpounds was calculated from the slope of the regression line from the mean permeated amounts vs. incubation time plot.

[12] = Plasma amoxicillin concentrations after repeated oral administration of amoxicillin; format: in vivo, mice; conditions: at 24, 48, and 72 h after the beginning of amoxicillin treatment (20 mg/kg/day oral, twice daily, 3 days)
Experimental: as §1
The standard calibration curve for amoxicillin was linear in the concentration range of 2–5000 ng/mL for the plasma samples, and the interday and intraday precision and accuracy were <15%.

[13] = tested on: LAB; set-up: method as in PMID 15902467; conditions: cited from earlier work
[14] = tested on: lactic acid bacteria (LAB); assay: Incubation of single ginsenoside with LAB (formation rate of metabolite ginsenoside); format: in vitro ADME; conditions: 7 days, 37 °C, MRS broth
Experimental: To compare the involvement of LAB on individual ginsenoside, an aliquot (10 μL) of each ginsenoside stock solution (10 mM in methanol) was mixed with autoclaved MRS broth (550 mg/10 mL in distilled water) and added 2 g of LAB (contained 1 billion CFU). Then, the mixture was incubated for 7 days in a shaking incubator at 37 °C and 300 rpm. For the analysis of ginsenosides, 0.2 mL aliquot of incubation mixture was collected every 24 h for 7 days. The incubation medium was diluted 100-fold with distilled water and stored at −80 °C. For the ginsenoside analysis, 200 μL of an IS solution (0.05 ng/mL berberine in methanol) was added to 30 μL of 100-fold diluted samples.

[15] = set-up: method as in PMID 26470874; conditions: 10–60 mg, intramuscular injection; cited from earlier work
[16] = tested on: Caco-2 cell monolayers; conditions: Caco-2, pH 7.4
Experimental: as §3, §4

[17] = tested on: lactic acid bacteria (LAB)
[18] = Control, single oral RGE 2 g/kg, plasma

| Structure (SMILES) | Alteration of ginsenoside by fermentation of RGE with LAB [4] | Increase of ginsenoside by fermentation of RGE with LAB [4] | Fecal recovery, change by the amoxicillin treatment [5] | Fecal recovery, change by LAB treatment [6] | AUC [7] | Cmax [7] | Half-Life [7] | MRT [7] | Tmax [7] | Detection in mouse plasma following repeated LAB administration in addition to amoxicillin [7] | Plasma exposure / pharmacokinetic parameters, LAB treatment compared with amoxicillin group [7] | Half-Life ([1]; mouse, in vivo, po, 2 g/kg) | MRT ([1]; mouse, in vivo, po, 2 g/kg) | other results |
| --- | --- | --- | --- | --- | --- | --- | --- | --- | --- | --- | --- | --- | --- | --- |
| CC(C)=CCC[C@](C)(O[C@@H]1O[C@H](CO)[C@@H](O)[C@H](O)[C@H]1O)[C@H]1CC[C@]2(C)[C@@H]1[C@H](O)C[C@@H]1[C@@]3(C)CC[C@H](O)C(C)(C)[C@@H]3CC[C@]12C [CK, 20(S)-compound K] | significantly increased | about 30% | significantly decreased | significantly increased | 0.2498 ± 0.103 µg·h/mL | 9.3 ± 2.9 ng/mL | 12.0 ± 5.0 h | 13.7 ± 6.2 h | 8.0 ± 0.0 h | detected | increased | – | – | Cmax [1, 18]: 3.6 ± 1.4 ng/mL; Half-Life [1, 18]: 13.2 ± 3.2 h; MRT [1, 18]: 13.9 ± 5.3 h; Tmax [1, 18]: 8.0 ± 0.0 h; AUC ([1]; Control, single oral RGE 2 g/kg, plasma, AUC 0 to 48 h, n = 3): 0.06994 ± 0.0378 µg·h/mL; Detection in plasma, amoxicillin treatment group ([1]; single oral RGE 2 g/kg): not seen; Detection in plasma, control group ([1]; single oral RGE 2 g/kg): detected; Plasma concentration of CK, Cmax ([2]; subjects who received 3 g fermented RGE (contains 10.9 mg CK)): 254.5 ng/mL; Plasma concentration of CK, Cmax ([2]; subjects who received RGE (does not contain CK)): 8.4 to 24.8 ng/mL; Safety and tolerability [3]: safe and well-tolerated; Ginsenosides identified in urine ([5]; urine 48 h after single oral RGE 2 g/kg): identified in urine |
| CC(C)NCC(O)COc1cccc2ccccc12 (stereo not drawn) [propranolol] | – | – | – | – | – | – | – | – | – | – | – | – | – | fraction unbound at 4 h, 1 μM ([8]; pooled mouse plasma): 0.103; Papp,AB reference values [9]: 18.8–33.1 × 10^−6 cm/s; Plasma protein binding reference values [10]: 87–96%; Papp A→B at 1 h [11]: 216 ± 23.5 nm/s |
| CC1(C)S[C@@H]2[C@H](NC(=O)[C@H](N)c3ccc(O)cc3)C(=O)N2[C@H]1C(=O)O [amoxicillin] | – | – | – | – | – | – | – | – | – | – | – | – | – | Plasma amoxicillin concentration [12]: 0.9 to 1.8 µg/mL; Concentration of amoxicillin that must be maintained to inhibit the growth of LAB [13]: ≤ 2 µg/mL |
| CC(C)=CCC[C@](C)(O)[C@H]1CC[C@]2(C)[C@@H]1[C@H](O)C[C@@H]1[C@@]3(C)CC[C@H](O[C@@H]4O[C@H](CO)[C@@H](O)[C@H](O)[C@H]4O[C@@H]4O[C@H](CO)[C@@H](O)[C@H](O)[C@H]4O)C(C)(C)[C@@H]3CC[C@]12C [GRg3] | – | about 30% | increased | significantly decreased | 0.0253 ± 0.0106 µg·h/mL | 4.8 ± 1.9 ng/mL | 5.3 ± 1.1 h | 3.5 ± 0.9 h | 2.5 ± 1.0 h | detected | increased | – | – | Metabolite formation on incubation of single ginsenoside with LAB [14]: GRh2 and PPD were produced; Increase of plasma exposure over the 6-fold dose range [15]: 7.3 fold; Detection in plasma, control mice and amoxicillin group [7]: not detected |
| CC(C)=CCC[C@](C)(O)[C@H]1CC[C@]2(C)[C@@H]1[C@H](O)C[C@@H]1[C@@]3(C)CC[C@H](O)C(C)(C)[C@@H]3[C@@H](O)C[C@]12C [PPT, 20(S)-protopanaxatriol] | significantly increased | – | significantly decreased | significantly increased | – | – | – | – | – | – | – | 20.4 ± 2.3 h | 20.2 ± 2.2 h | Plasma protein binding ([8]; 1 μM, mouse plasma): over 99%; Papp,AB [16]: 3.72 ± 0.56 × 10^−6 cm/s |
| CC(C)=CCC[C@](C)(O)[C@H]1CC[C@]2(C)[C@@H]1[C@H](O)C[C@@H]1[C@@]3(C)CC[C@H](O)C(C)(C)[C@@H]3CC[C@]12C [PPD, 20(S)-proptopanaxadiol] | – | – | – | – | – | – | – | – | – | – | – | 7.9 ± 1.8 h | 12.6 ± 4.7 h | Alteration of ginsenoside by fermentation of RGE with LAB [17]: significantly increased |
